Laboratory results as given in patent US7348347B2, “Substituted 4,5,6,7-tetrahydrobenzthiazol-2-ylamine compounds” (Gruenenthal GmbH, priority 2004, dated 2008).

Target: T1, 5-HT uptake (Rattus norvegicus, UniProt P31652)
T1 construct: from tissue; host or cells: rat brain synaptosomes (P2 fraction) from marrow (medulla) and pons
Assay: Inhibition of 5-HT uptake in rat brain synaptosomes
Assay type: biochemical
Conditions: [3H]-5-HT
Procedure: The relevant literature reference is enclosed herein by reference and is to be regarded as part of the disclosure.
The homogenate is centrifuged at 4° C. for 10 minutes at 1000 g. Following subsequent centrifugation at 17,000 g for 55 minutes, the synaptosomes (P2 fraction) are obtained, which are then resuspended in 0.32 M […] (0.5 mL/100 mg of the original weight).
The respective uptake was measured in a 96 well microtiter plate. The volume was 250 μL and the incubation was carried out at room temperature (ca 20-25° C.) under a blanket of oxygen.
The 96 samples through were then filtered through a Unifilter GF/B® microtiter plate (Packard) and washed with 200 mL of incubated buffer with the aid of a “Brabdel Cell-Harvester MPXRI 96T”. The Unifilter GF/B plate was dried at 55° C. over a period of 1 h. The plate was then sealed with a back seal® (Packard) and there were then added 35 μL of scintillant fluid per well (Ultima Gold, Packard).
A detailed description of the method is disclosed in the literature, for example, in M. Ch.

[1] = rat synaptosomes (medulla and pons)

T1 sequence (P31652 whole entry): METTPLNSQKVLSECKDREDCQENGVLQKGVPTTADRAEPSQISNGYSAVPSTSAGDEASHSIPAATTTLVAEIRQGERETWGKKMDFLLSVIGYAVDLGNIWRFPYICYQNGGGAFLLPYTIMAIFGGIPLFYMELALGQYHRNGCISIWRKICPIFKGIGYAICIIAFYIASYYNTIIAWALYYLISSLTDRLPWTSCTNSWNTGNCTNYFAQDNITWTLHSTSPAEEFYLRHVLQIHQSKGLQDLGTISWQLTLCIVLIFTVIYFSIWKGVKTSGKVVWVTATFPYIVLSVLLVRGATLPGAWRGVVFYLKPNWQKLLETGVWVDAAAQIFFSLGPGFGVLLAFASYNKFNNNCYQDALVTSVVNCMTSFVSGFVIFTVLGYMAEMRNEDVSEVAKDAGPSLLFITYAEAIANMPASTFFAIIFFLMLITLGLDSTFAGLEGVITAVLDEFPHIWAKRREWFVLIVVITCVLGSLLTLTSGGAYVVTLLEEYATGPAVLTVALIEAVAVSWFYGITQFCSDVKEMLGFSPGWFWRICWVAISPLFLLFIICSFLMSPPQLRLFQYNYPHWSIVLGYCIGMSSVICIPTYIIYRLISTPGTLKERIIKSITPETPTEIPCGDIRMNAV

Row | Compound | inhibition at 10 µM [1] | % Inhibition of 5-HT uptake [10 μM] [1] | other results
1 | 2-[2-(3,5-Difluorophenyl)acetylamino]-4,5,6,7-tetrahydrobenzthiazol-4-carboxylic acid[1-(2-ethoxybenzyl)pyrrolidin-3-yl]methylamide [Example 44] |  |  | % Inhibition of 5-HT uptake [10 μM] (rat synaptosomes (and pons)): 41%
2 | O=C(Nc1nc2c(s1)CCCC2C(=O)NCCN1CCCC1)c1ccc2ccccc2c1 (stereo not shown) [Example 43, 2-[(Naphthalene-2-carbonyl)amino]-4,5,6,7-tetrahydrobenzthiazol-4-carboxylic acid (2-pyrrolidin-1-ylethyl)amide] | 63% |  | 
3 | CCOc1ccccc1C(=O)Nc1nc2c(s1)CCCC2C(=O)N1CCCC1CN1CCCC1 (stereo not shown) [Example 31, 2-Ethoxy-N-[4-(2-pyrrolidin-1-ylmethylpyrrolidin-1-carbonyl)-4,5,6,7-tetrahydrobenzthiazol-2-yl]benzamide] | 59% |  | 
4 | O=C(Cc1cccs1)Nc1nc2c(s1)CCCC2C(=O)N1CCCC1CN1CCCC1 (stereo not shown) [Example 5, N-[4-(2-Pyrrolidin-1-ylmethylpyrrolidin-1-carbonyl)-4,5,6,7-tetrahydrobenzthiazol-2-yl]-2-thiophen-2-ylacetamide] | 41% |  | 
5 | CCOc1ccccc1CN1CCC(CNC(=O)C2CCCc3sc(NC(=O)COc4ccccc4)nc32)C1 (stereo not shown) [Example 51, 2-(2-Phenoxyacetylamino)-4,5,6,7-tetrahydrobenzthiazol-4-carboxylic acid[1-(2-ethoxybenzyl)pyrrolidin-3-yl]methylamide] |  | 59% | 
6 | O=C(Nc1nc2c(s1)CCCC2C(=O)N1CCN(CC(=O)N2CCCC2)CC1)c1ccc2ccccc2c1 (stereo not shown) [Example 32, Naphthalene-2-carboxylic acid{4-[4-(2-oxo-2-pyrrolidin-1-ylethyl)piperazin-1-carbonyl]-4,5,6,7-tetrahydrobenzthiazol-2-yl}amide] |  | 51% | 
7 | O=C(C=Cc1ccco1)Nc1nc2c(s1)CCCC2C(=O)N1CCN(c2cccc(C(F)(F)F)c2)CC1 (stereo not shown) [Example 76, 3-Furan-2-yl-N-{4-[4-(3-trifluoromethylphenyl)piperazin-1-carbonyl]-4,5,6,7-tetrahydrobenzthiazol-2-yl}acrylamide] | 62% |  | 
8 | CCOc1cc(N2CCOCC2)c(OCC)cc1NC(=O)C1CCCc2sc(NC(=O)CC(C)(C)C)nc21 (stereo not shown) [Example 80, 2-(3,3-Dimethylbutyrylamino)-4,5,6,7-tetrahydrobenzthiazol-4-carboxylic acid (2,5-diethoxy-4-morpholin-4-ylphenyl)amide] | 52% |  | 
9 | CN(C)CCNC(=O)C1CCCc2sc(NC(=O)COc3ccccc3)nc21 (stereo not shown) [Example 30, 2-(2-Phenoxyacetylamino)-4,5,6,7-tetrahydrobenzthiazol-4-carboxylic acid(2-dimethylaminoethyl)amide] |  | 64% | 
10 | O=C(Cc1cc(F)cc(F)c1)Nc1nc2c(s1)CCCC2C(=O)N1CCN(C(c2ccccc2)c2ccccc2)CC1 (stereo not shown) [Example 83, N-[4-(4-Benzhydrylpiperazin-1-carbonyl)-4,5,6,7-tetrahydrobenzthiazol-2-yl]-2-(3,5-difluorophenyl)acetamide] | 44% |  | 
11 | O=C(Cc1cc(F)cc(F)c1)Nc1nc2c(s1)CCCC2C(=O)NCC1CCN(Cc2c(Cl)cccc2Cl)C1 (stereo not shown) [Example 62, 2-[2-(3,5-Difluorophenyl)acetylamino]-4,5,6,7-tetrahydrobenzthiazol-4-carboxylic acid[1-(2,6-dichlorobenzyl)pyrrolidin-3-yl]methylamide] |  | 53% | 
12 | COc1ccc(C(=O)Nc2nc3c(s2)CCCC3C(=O)N2CCN(Cc3ccc(Cl)cc3)CC2)cc1 (stereo not shown) [Example 25, N-{4-[4-(4-Chlorobenzyl)piperazin-1-carbonyl]-4,5,6,7-tetrahydrobenzthiazol-2-yl}-4-methoxybenzamide] | 53% |  | 
13 | CN(CCCNC(=O)C1CCCc2sc(NC(=O)CC3CCCCC3)nc21)c1ccccc1 (stereo not shown) [Example 68, 2-(2-Cyclohexylacetylamino)-4,5,6,7-tetrahydrobenzthiazol-4-carboxylic acid [3-(methylphenyl-amino)propyl]amide] | 84% |  | 
14 | CC=CC=CC(=O)Nc1nc2c(s1)CCCC2C(=O)NCC1CCN(Cc2ccc(-c3ccccc3)cc2)C1 (stereo not shown) [Example 37, 2-Hexa-2,4-dienoylamino-4,5,6,7-tetrahydrobenzthiazol-4-carboxylic acid (1-biphenyl-4-ylmethylpyrrolidin-3-yl)methylamide] | 44% |  | 
15 | CN(C)CCCNC(=O)C1CCCc2sc(NC(=O)CC(C)(C)C)nc21 (stereo not shown) [Example 24, 2-(3,3-Dimethylbutyrylamino)-4,5,6,7-tetrahydrobenzthiazol-4-carboxylic acid(3-dimethylaminopropyl)amide] | 89% |  | 
16 | CCCCCC(=O)Nc1nc2c(s1)CCCC2C(=O)N1CCN(Cc2ccc(OC)c(F)c2)CC1 (stereo not shown) [Example 59, Hexanoic acid{4-[4-(3-fluoro-4-methoxybenzyl)piperazin-1-carbonyl]-4,5,6,7-tetrahydrobenzthiazol-2-yl}amide] |  | 46% | 

Row | Compound | inhibition at 10 µM [1] | % Inhibition of 5-HT uptake [10 μM] [1] | other results
17 | O=C(Nc1nc2c(s1)CCCC2C(=O)N1CCCC1CN1CCCC1)c1ccc2ccccc2c1 (stereo not shown) [Example 26, Naphthalene-2-carboxylic acid[4-(2-pyrrolidin-1-ylmethylpyrrolidin-1-carbonyl)-4,5,6,7-tetrahydrobenzthiazol-2-yl]amide] |  | 80% | 
18 | CCCCCC(=O)Nc1nc2c(s1)CCCC2C(=O)N1CCN(Cc2cc3ccccc3o2)CC1 (stereo not shown) [Example 65, Hexanoic acid[4-(4-benzofuran-2-ylmethylpiperazin-1-carbonyl)-4,5,6,7-tetrahydrobenzthiazol-2-yl]amide] |  | 44% | 
19 | CC1CCCCN1CCCNC(=O)C1CCCc2sc(NC(=O)COc3ccccc3)nc21 (stereo not shown) [Example 42, 2-(2-Phenoxyacetylamino)-4,5,6,7-tetrahydrobenzthiazol-4-carboxylic acid[3-(2-methylpiperidin-1-yl)propyl]amide] |  | 42% | 
20 | O=C(Cc1cc(F)cc(F)c1)Nc1nc2c(s1)CCCC2C(=O)N1CCN(c2cccc(C(F)(F)F)c2)CC1 (stereo not shown) [Example 74, 2-(3,5-Difluorophenyl)-N-{4-[4-(3-trifluoromethylphenyl)piperazin-1-carbonyl]-4,5,6,7-tetrahydrobenzthiazol-2-yl}acetamide] | 82% |  | 
21 | O=C(CC1CCCCC1)Nc1nc2c(s1)CCCC2C(=O)N1CCN(C(c2ccccc2)c2ccccc2)CC1 (stereo not shown) [Example 88, N-[4-(4-Benzhydrylpiperazin-1-carbonyl)-4,5,6,7-tetrahydrobenzthiazol-2-yl]-2-cyclohexylacetamide] | 41% |  | 
22 | Cc1cc(C)cc(C(=O)Nc2nc3c(s2)CCCC3C(=O)NC2CCN(Cc3ccccc3SC(C)(C)C)C2)c1 (stereo not shown) [Example 35] |  | 41% | 
23 | CC(C)(C)CC(=O)Nc1nc2c(s1)CCCC2C(=O)N1CCN(c2ccc(C(F)(F)F)cn2)CC1 (stereo not shown) [Example 86, 3,3-Dimethyl-N-{4-[4-(5-trifluoromethylpyridin-2-yl)piperazin-1-carbonyl]-4,5,6,7-tetrahydrobenzthiazol-2-yl}butyramide] | 54% |  | 
24 | CN(C)CCN1CCN(C(=O)C2CCCc3sc(NC(=O)CC4CCCCC4)nc32)CC1 (stereo not shown) [Example 1, 2-Cyclohexyl-N-{4-[4-(2-Dimethylaminoethyl)piperazin-1-carbonyl]-4,5,6,7-tetrahydrobenzthiazol-2-yl}acetamide] | 65% |  | 
25 | O=C(CCc1ccccc1)Nc1nc2c(s1)CCCC2C(=O)N1CCN(c2ccc(C(F)(F)F)cn2)CC1 (stereo not shown) [Example 70, 3-Phenyl-N-{4-[4-(5-trifluoromethylpyridin-2-yl)piperazin-1-carbonyl]-4,5,6,7-tetrahydrobenzthiazol-2-yl}propionamide] | 44% |  | 
26 | CN1CCCC1CCNC(=O)C1CCCc2sc(NC(=O)COc3ccc(F)cc3)nc21 (stereo not shown) [Example 46, 2-[2-(4-Fluorophenoxy)acetylamino]-4,5,6,7-tetrahydrobenzthiazol-4-carboxylic acid[2-(1-methylpyrrolidin-2-yl)ethyl]amide] |  | 53% | 
27 | CN(C)c1ccc(CNC(=O)C2CCCc3sc(NC(=O)c4ccc5ccccc5c4)nc32)cc1 (stereo not shown) [Example 45, 2-[(Naphthalene-2-carbonyl)amino]-4,5,6,7-tetrahydrobenzthiazol-4-carboxylic acid 4-dimethylaminobenzylamide] | 42% |  | 
28 | CC1CCCCN1CCCNC(=O)C1CCCc2sc(NC(=O)C=Cc3ccco3)nc21 (stereo not shown) [Example 23, 2-(3-Furan-2-ylacryloylamino)-4,5,6,7-tetrahydrobenzthiazol-4-carboxylic acid [3-(2-methylpiperidin-1-yl)propyl]amid] | 57% |  | 
29 | O=C(Cc1cc(F)cc(F)c1)Nc1nc2c(s1)CCCC2C(=O)N1CCCC1CN1CCCC1 (stereo not shown) [Example 57, 2-(3,5-Difluorophenyl)-N-[4-(2-pyrrolidin-1-ylmethylpyrrolidin-1-carbonyl)-4,5,6,7-tetrahydrobenzthiazol-2-yl]acetamide] | 72% |  | 
30 | CCOc1ccccc1C(=O)Nc1nc2c(s1)CCCC2C(=O)N1CCN(c2ccccc2Cl)CC1 (stereo not shown) [Example 85, N-{4-[4-(2-Chlorophenyl)piperazin-1-carbonyl]-4,5,6,7-tetrahydrobenzthiazol-2-yl}-2-ethoxybenzamide] | 48% |  | 
31 | CN1CCN(C(=O)C2CCCc3sc(NC(=O)c4ccc5ccccc5c4)nc32)CC1 (stereo not shown) [Example 4, Naphthalene-2-carboxylic acid[4-(4-methylpiperazin-1-carbonyl)-4,5,6,7-tetrahydrobenzthiazol-2-yl]amide] |  | 48% | 
